Laboratory results: patent US12130255B2, “High-throughput label-free enzymatic bioassays using DESI-MS” (priority 2020, dated 2024)

Tests used:
[1] = biological target: T1, acetylcholinesterase (AChE) (Homo sapiens, UniProt P22303); test: DESI-MS label-free acetylcholinesterase inhibition assay, dose-response curves; assay type: biochemical
[2] = biological target: T1, acetylcholinesterase (AChE); test: DESI-MS AChE inhibition, Dixon plot (inhibitor and substrate concentrations varied); assay type: biochemical
Procedure: For kinetic determinations the reactions were incubated for 50 minutes, with the concentration of substrate held kept between 0.4 to 1 mM, while the concentration of enzyme was set to 180 ng/mL. Note that only concentrations within the calibration range were used. The calibrated result (inset) is used to determine v0 of the reaction. The data shown come from eight instrumental replicates from a single mixture (128 spots), acquired in less than 2.5 minutes.
Further characterization of the inhibitors was achieved by screening simultaneously different concentrations of inhibitor and the substrate in order to obtain the Dixon plot (FIG. 11). […] This Dixon plot required that 24 independent progress curves be determined: duplicate measurements taken on 12 combinations of concentrations of inhibitor (0, 40, 100, 200 nM) and substrate (0.6, 0.8, 1.0 mM). This required the analysis of 3072 spots, carried out in approx. 35 minutes, with simultaneous incubation time of 50 minutes.

T1 sequence (P22303 32-614, species assumed): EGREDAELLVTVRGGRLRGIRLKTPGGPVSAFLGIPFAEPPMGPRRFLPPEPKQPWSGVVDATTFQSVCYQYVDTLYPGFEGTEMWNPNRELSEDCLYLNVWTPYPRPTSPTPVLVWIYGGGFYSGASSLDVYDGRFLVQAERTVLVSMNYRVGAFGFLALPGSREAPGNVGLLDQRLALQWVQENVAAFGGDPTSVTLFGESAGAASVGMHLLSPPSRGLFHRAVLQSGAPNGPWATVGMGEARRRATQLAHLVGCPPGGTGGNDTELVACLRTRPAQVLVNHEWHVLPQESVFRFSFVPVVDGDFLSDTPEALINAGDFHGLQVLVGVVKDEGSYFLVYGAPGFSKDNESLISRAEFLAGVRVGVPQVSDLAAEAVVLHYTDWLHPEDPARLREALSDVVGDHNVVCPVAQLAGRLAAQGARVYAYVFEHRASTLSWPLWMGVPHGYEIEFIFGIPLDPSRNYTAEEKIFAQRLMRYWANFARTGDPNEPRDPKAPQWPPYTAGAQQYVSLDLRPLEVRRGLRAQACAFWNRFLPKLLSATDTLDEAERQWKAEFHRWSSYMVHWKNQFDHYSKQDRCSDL

SMILES	IC50 [1]	type of inhibition (intersection of the lines in the Dixon plot) [2]
COc1ccc2c3c1O[C@H]1C(=O)CC[C@H]4[C@@H](C2)N(C)CC[C@]314 [hydrocodone]	116 µM	–
CN(C)C(=O)Oc1cccc([N+](C)(C)C)c1 [neostigmine]	–	competitive inhibitor
COc1ccc2c3c1O[C@H]1C(=O)CC[C@@]4(O)[C@@H](C2)N(C)CC[C@]314 [oxycodone]	0.122 µM	–
